PubChem BioAssay AID1259407 (Chemical Carcinogenesis Research Information System (CCRIS), 2018)
Active and inactive are the calls of the source. The rule behind the calls is not given here.

System: CCRIS mutagenicity, Ames/micronucleus/aberration tests
Assay: CCRIS mutagenicity studies
Settings: Test System: AMES SALMONELLA TYPHIMURIUM, Method: PREINCUBATION

Measured: mutagenic call

CCCCCCCC(=O)O
inactive: Strain/Indicator: TA97, Metabolic Activation: HAMSTER, LIVER, S-9, AROCLOR 1254 (10%) inactive; negative | Strain/Indicator: TA97, Metabolic Activation: HAMSTER, LIVER, S-9, AROCLOR 1254 (30%) inactive; negative | Strain/Indicator: TA97, Metabolic Activation: NONE inactive; negative | Strain/Indicator: TA97, Metabolic Activation: RAT, LIVER, S-9, AROCLOR 1254 (10%) inactive; negative | Strain/Indicator: TA97, Metabolic Activation: RAT, LIVER, S-9, AROCLOR 1254 (30%) inactive; negative | Strain/Indicator: TA98, Metabolic Activation: HAMSTER, LIVER, S-9, AROCLOR 1254 (10%) inactive; negative | Strain/Indicator: TA98, Metabolic Activation: HAMSTER, LIVER, S-9, AROCLOR 1254 (30%) inactive; negative | Strain/Indicator: TA98, Metabolic Activation: NONE inactive; negative | Strain/Indicator: TA98, Metabolic Activation: RAT, LIVER, S-9, AROCLOR 1254 (10%) inactive; negative | Strain/Indicator: TA98, Metabolic Activation: RAT, LIVER, S-9, AROCLOR 1254 (30%) inactive; negative | Strain/Indicator: TA100, Metabolic Activation: HAMSTER, LIVER, S-9, AROCLOR 1254 (10%) inactive; negative | Strain/Indicator: TA100, Metabolic Activation: HAMSTER, LIVER, S-9, AROCLOR 1254 (30%) inactive; negative | Strain/Indicator: TA100, Metabolic Activation: NONE inactive; negative | Strain/Indicator: TA100, Metabolic Activation: RAT, LIVER, S-9, AROCLOR 1254 (10%) inactive; negative | Strain/Indicator: TA100, Metabolic Activation: RAT, LIVER, S-9, AROCLOR 1254 (30%) inactive; negative | Strain/Indicator: TA1535, Metabolic Activation: HAMSTER, LIVER, S-9, AROCLOR 1254 (10%) inactive; negative | Strain/Indicator: TA1535, Metabolic Activation: HAMSTER, LIVER, S-9, AROCLOR 1254 (30%) inactive; negative | Strain/Indicator: TA1535, Metabolic Activation: NONE inactive; negative | Strain/Indicator: TA1535, Metabolic Activation: RAT, LIVER, S-9, AROCLOR 1254 (10%) inactive; negative | Strain/Indicator: TA1535, Metabolic Activation: RAT, LIVER, S-9, AROCLOR 1254 (30%) inactive; negative | Strain/Indicator: TA1537, Metabolic Activation: HAMSTER, LIVER, S-9, AROCLOR 1254 (10%) inactive; negative | Strain/Indicator: TA1537, Metabolic Activation: HAMSTER, LIVER, S-9, AROCLOR 1254 (30%) inactive; negative | Strain/Indicator: TA1537, Metabolic Activation: NONE inactive; negative | Strain/Indicator: TA1537, Metabolic Activation: RAT, LIVER, S-9, AROCLOR 1254 (10%) inactive; negative | Strain/Indicator: TA1537, Metabolic Activation: RAT, LIVER, S-9, AROCLOR 1254 (30%) inactive; negative
